Tests used:
[1] = Methylene blue experiment for H2S release in PBS buffer in presence of cysteine or GSH; type: physicochemical; conditions: for GSH Peaking time / GSH [H2S] at peaking time / Cys Peaking time / Cys [H2S] at peaking time: PBS buffer pH 7.4, donor 150 μM; for GSH Peaking time / GSH [H2S] at peaking time: 1.5 mM GSH, experimental period 3 hours; for Cys Peaking time / Cys [H2S] at peaking time: 1.5 mM cysteine; for GSH Peaking time (min) / GSH [H2S] at peaking time (μM) / Cys Peaking time (min) / Cys [H2S] at peaking time (μM): footnote a: donors 40 μM and cysteine 4.0 mM
Protocol: Na2S Standard Curve for H2S Release
2.0 mM Na2S stock solution was prepared as described in previous section. Five aliquots of Na2S solution at 3.75 μL, 7.50 μL, 15.0 μL, 45.0 μL, and 112.5 μl were injected into the 4-mL vials containing H2O (1.0 mL), zinc acetate (1% w/v, 100 μL), N,N-dimethyl-1,4-phenylenediamine sulfate (200 μL, 20 mM) in 7.2 M HCl and ferric chloride (200 μL, 30 mM) in 1.2 M HCl, respectively. Stir the resultant solution for 15 minutes at room temperature. The absorbance (670 nm) of aliquots was determined using a UV-Vis spectrometer.
Cysteine stock solution in H2O (400 mM, 112.5 μL) and N-(benzoylthio)benzamide 2 stock solution in THF (40 mM, 112.5 μL) were added into PBS buffer solution (30 mL, pH=7.4) containing EDTA (50 mM, 60 μL), respectively. Every 3 minute, 1.0 mL of aliquots were taken to 4-mL vials containing, zinc acetate (1% w/v, 100 μL), N,N-dimethyl-1,4-phenylenediamine sulfate (200 μL, 20 mM) in 7.2 M HCl and ferric chloride (200 μL, 30 mM) in 1.2 M HCl within 3 hours. Then the absorbance (670 nm) was determined using a UV-Vis spectrometer.
The initial concentrations of H2S-donors shown below were 150 μM and the detection of H2S released from these molecules was measured in presence of 1.5 mM of cysteine or GSH, unless otherwise indicated.

[2] = tested on: mice subjected to ischemia followed by reperfusion; assay: Mouse model of ischemia followed by reperfusion (Elrod et al.); type: in vivo; conditions: compared to vehicle treated mice
Protocol: The effects of compound 2 have been tested using the mouse model of Elrod et al. (Proc. Natl. Acad. Sci. USA 2007, 104, 15560). Briefly, mice were subjected to ischemia followed by reperfusion. During reperfusion, compound 2 was administered to the mice.

[3] = H2S release measurement in plasma (colorimetry method); type: in vitro ADME, bovine/calf; conditions: plasma containing ~500 μM cysteine
Protocol: It is known that plasma contains significant amount of free cysteine. We therefore measured H2S generation of 2-13 in plasma (containing ˜500 μM cysteine) using a colorimetry method.
To 0.5 mL of bovine/calf plasma was added […] containing zinc acetate (1% w/v, 100 μL) and trichloroacetic acid (10% w/v, 600 μL). The mixture was allowed to centrifuge for 10 min (5000 g). The precipitate was filtered out and 1.2 mL of the clear solution was transferred into a 2-mL vial containing N,N-dimethyl-1,4-phenylenediamine sulfate (150 μL, 20 mM) in 7.2 M HCl and ferric chloride (150 μL, 30 mM) in 1.2 M HCl. […] The absorbance (670 nm) of aliquots of the resulting solution (1.5 mL) was determined using a UV-VIS spectrometer. The concentration of MB^+ was then converted to the concentration of H2S according to the reaction equation shown above and the calibration curve was generated by plotting the absorbance versus [H2S].
To 2.0 mL of bovine/calf plasma (containing cysteine […]) was added 2 mL water solution containing 5a (25 μl, of 80 mM in DMSO). […] Subsequently, N,N-dimethyl-p-phenylenediamine sulfate (20 mM, 150 μL) in 7.2 M HCl was added followed by FeCl3 (30 mM, 150 μL) in 1.2 M HCl, and absorbance (670 nm) of aliquots of the resulting solution (1.5 mL) was determined 20 minutes thereafter using a UV-Vis spectrometer.

SMILES | GSH Peaking time [1] | GSH [H2S] at peaking time [1] | Cys Peaking time [1] | Cys [H2S] at peaking time [1] | also measured
O=C(NSC(=O)c1ccccc1)Nc1ccccc1 | 30 min | 23.4 µM | 15 min | 33.9 µM | –
O=C(NSC(=O)c1ccccc1)c1ccccc1 [Compound 2, N-(benzoylthio)benzamide] | 39 min | 140.4 µM | 24 min | 143.6 µM | reduction in infarct size per area-at-risk (INF/AAR) ([2]; 100 μg/kg bolus during reperfusion, maximal): 40%; infarct size per area-at-risk (INF/AAR), dose dependence ([2]; administered during reperfusion): dose-dependent reduction; H2S generation in plasma [3]: time-dependent H2S release
O=C(NSC(=O)c1ccc(F)cc1)c1ccccc1 [Compound 3] | 36 min | 122.6 µM | 18 min | 143.1 µM | –
O=C(NSC(=O)c1ccc(C(F)(F)F)cc1)c1ccccc1 [Compound 4] | 27 min | 59.5 µM | 26 min | 110.0 µM | –
O=C(NSC(=O)c1cccc(Cl)c1)c1ccccc1 [Compound 5] | 36 min | 146.5 µM | 24 min | 142.1 µM | –
Cc1ccccc1C(=O)SNC(=O)c1ccccc1 [Compound 6] | 45 min | 61.9 µM | 34 min | 85.0 µM | –
Cc1cccc(C(=O)SNC(=O)c2ccccc2)c1 [Compound 7] | 39 min | 131.0 µM | 28 min | 141.8 µM | –
Cc1ccc(C(=O)SNC(=O)c2ccccc2)cc1 [Compound 8] | 30 min | 100.3 µM | 27 min | 93.9 µM | –
COc1ccccc1C(=O)SNC(=O)c1ccccc1 [Compound 9] | 48 min | 48.3 µM | 36 min | 52.8 µM | –
COc1cccc(C(=O)SNC(=O)c2ccccc2)c1 [Compound 10] | 20 min | 133.6 µM | 25 min | 111.6 µM | –
COc1ccc(C(=O)SNC(=O)c2ccccc2)cc1 [Compound 11] | 40 min | 100.5 µM | 27 min | 92.4 µM | –
COc1ccc(C(=O)SNC(=O)c2ccccc2)c(OC)c1 [Compound 12] | – | – | – | – | GSH Peaking time (min) [1]: 120 ^a min; GSH [H2S] at peaking time (μM) [1]: 13.2 ^a μM; Cys Peaking time (min) [1]: 50 ^a min; Cys [H2S] at peaking time (μM) [1]: 23.0 ^a μM
CN(C)c1ccc(C(=O)SNC(=O)c2ccccc2)cc1 [Compound 13] | – | – | – | – | GSH Peaking time (min) [1]: 30 ^a min; GSH [H2S] at peaking time (μM) [1]: 15.0 ^a μM; Cys Peaking time (min) [1]: 22 ^a min; Cys [H2S] at peaking time (μM) [1]: 17.5 ^a μM
O=C(NSC(=O)C1CCCCC1)c1ccccc1 [Compound 16] | 36 min | 81.9 µM | 18 min | 72.4 µM | –
O=C(NSC(=O)C1CCCC1)c1ccccc1 [Compound 17] | 32 min | 110.9 µM | 18 min | 100.6 µM | –
CC(C)C(=O)SNC(=O)c1ccccc1 [Compound 18] | 52 min | 101.1 µM | 36 min | 131.6 µM | –

SMILES | GSH Peaking time [1] | GSH [H2S] at peaking time [1] | Cys Peaking time [1] | Cys [H2S] at peaking time [1] | also measured
CC(=O)SNC(=O)c1ccccc1 [Compound 19] | 18 min | 116.1 µM | 12 min | 132.6 µM | –
CCC(=O)SNC(=O)c1ccccc1 [Compound 20] | 35 min | 103.6 µM | 28 min | 106.1 µM | –
CC(C)(C)C(=O)SNC(=O)c1ccccc1 [Compound 21] | 90 min | 96.6 µM | 55 min | 106.4 µM | –
CCCC(=O)SNC(=O)c1ccccc1 [Compound 22] | 40 min | 122.3 µM | 39 min | 111.3 µM | –
Cc1ccccc1C(=O)NSC(=O)c1ccccc1 [Compound 24] | 30 min | 130.5 µM | 24 min | 146.9 µM | –
O=C(NSC(=O)c1ccccc1)c1cccc(Cl)c1 [Compound 25] | 27 min | 84.3 µM | 26 min | 83.6 µM | –
O=C(NSC(=O)c1ccccc1)c1ccc(F)cc1 [Compound 26] | 42 min | 104.1 µM | 34 min | 110.6 µM | –
CC(=O)NSC(=O)c1ccccc1 [Compound 27] | 39 min | 149.6 µM | 30 min | 145.4 µM | –
CCC(=O)NSC(=O)c1ccccc1 [Compound 28] | 50 min | 116.6 µM | 34 min | 120.9 µM | –
CCCC(=O)NSC(=O)c1ccccc1 [Compound 29] | 39 min | 98.9 µM | 30 min | 102.8 µM | –
O=C(Cc1ccccc1)SNC(=O)c1ccccc1 [Compound 30] | 44 min | 104.9 µM | 30 min | 108.6 µM | –
CC(C(=O)SNC(=O)c1ccccc1)c1ccccc1 (stereo not drawn) [Compound 31] | 52 min | 103.8 µM | 36 min | 130.4 µM | –
O=C(NSC(=O)C(c1ccccc1)c1ccccc1)c1ccccc1 [Compound 32] | – | – | 60 min | 45.6 µM | –
COC(=O)C(CSSC(=O)c1ccccc1)NC(=O)c1ccccc1 (stereo not drawn) [Compound 33] | 45 min | 18.3 µM | 35 min | 25.8 µM | –
CC(=O)NC(C(=O)NCc1ccccc1)C(C)(C)SSC(=O)c1ccccc1 (stereo not drawn) [Compound 34] | 39 min | 137 µM | 33 min | 149 µM | melting point: 143 to 145 °C
